{"source": "paper PMC13183915", "about": "“A platinum butterfly effect: small changes turn an anticancer drug into a non-toxic metalloantibiotic with in vivo efficacy” (npj Antimicrobials and Resistance, 2026)", "key": {"[1]": {"test_system": "methicillin-sensitive Staphylococcus aureus (MSSA), clinical isolate", "assay": "MIC assay, MSSA clinical isolate", "format": "cell-based", "details": "MSSA clinical isolate"}, "MRSA NRS 100": {"test_system": "MRSA NRS 100", "assay": "Broth microdilution MIC, MRSA NRS 100", "format": "cell-based, S. aureus", "details": "MRSA NRS 100", "procedure": "(§1) The data is given in supporting information (Table S5). Before starting the experiment, a single colony was picked from MHA plate, inoculated in MHBII and incubated overnight at 37 °C with shaking for 18–24 h to get the starter culture. Antibiotic susceptibility testing was conducted according to the CLSI (Clinical & Laboratory Standards Institute) guidelines using the broth microdilution assay. 10 mg/mL stock solutions of test compounds were prepared in DMSO. Bacterial cultures were inoculated in MHBII and optical density (OD) was measured at 600 nm, followed by dilution to achieve ~10^6 CFU/mL. The compounds were tested from 64 to 0.5 mg/L in two-fold serial diluted fashion with 2.5 μL of each concentration added to well of a 96-well round bottom microtiter plate. Later, 97.5 μL of bacterial suspension was added to each well containing either test compound or appropriate controls. […] The MIC is defined as the lowest concentration of the compound at which there is absence of visible growth. For each test compound, MIC determinations were carried out independently three times using duplicate samples."}, "MRSA NRS 129": {"test_system": "MRSA NRS 129", "assay": "Broth microdilution MIC, MRSA NRS 129", "format": "cell-based, S. aureus", "details": "MRSA NRS 129", "procedure": "as §1"}, "A. baumanii BAA 1605": {"test_system": "A. baumanii BAA 1605", "assay": "Broth microdilution MIC, A. baumannii BAA 1605", "format": "cell-based, Acinetobacter baumannii", "procedure": "as §1"}, "Vero cells": {"test_system": "Vero cells", "assay": "Cytotoxicity against Vero cells (MTT assay)", "format": "cell-based, African Green Monkey", "details": "72 h", "procedure": "Cell toxicity was performed against Vero cells using the MTT assay. ~10^3 cells/well were seeded in 96 well plate and incubated at 37 °C with 5% CO2 atmosphere. […] After the incubation was over, MTT was added in each well, incubated at 37 °C for further 4 h, residual medium was discarded, 0.1 mL of DMSO was added to solubilize the formazan crystals and OD540 was taken for the calculation of IC50. Doxorubicin was used as positive control and each experiment was repeated in triplicate."}, "B. subtilis 168CA": {"test_system": "B. subtilis 168CA", "assay": "ROS scavenger assay (modified MIC assay)", "format": "cell-based, Bacillus subtilis", "procedure": "LB media were prepared to contain either 10 mM tiron, 150 mM thiourea, 10 mM tiron and 150 mM thiourea, or no […]. Serial two-fold dilutions of the different antibiotics were prepared in the respective media and transferred to 96-well plates. […] The OD600 was meassured in a BMG Clariostar Plus plate reader."}}, "note": "Values joined by “and” are separate entries in the source; they are usually repeats but may differ in a detail not shown here. Equal values may be shown once."}
{"compound": "C1=C\\CC/C=C\\CC/1.[Cl][Pt][Cl]", "note": "[Pt1]", "values": [{"measurement": "MIC", "setting": "[1]", "result": "3.13 to 6.25", "unit": "µM"}, {"measurement": "MIC", "setting": "MRSA NRS 100", "result": "0.67 to 1.34", "unit": "µM"}, {"measurement": "MIC", "setting": "MRSA NRS 129", "result": "0.125 – 0.25 µg/mL and 0.33–0.67 µM"}, {"measurement": "MIC", "setting": "A. baumanii BAA 1605", "result": "> 64", "unit": "µg/mL"}, {"measurement": "IC50", "setting": "Vero cells", "result": "> 134", "unit": "µM"}, {"measurement": "MIC fold change (increase) with scavenger", "setting": "B. subtilis 168CA; medium containing 150 mM thiourea (hydroxyl radical scavenger)", "result": "tenfold"}, {"measurement": "MIC fold change (increase) with scavengers", "setting": "B. subtilis 168CA; medium containing both tiron and thiourea", "result": 13, "unit": "fold"}]}
